In US20220040252A1, “TREATMENT OF PROSTATE CANCER BY ANDROGEN ABLATION AND IL-8 BLOCKADE” (The Trustees of Columbia University in the City of New York, priority 2019, published 2022):
Where two headings read alike, the source gives them in different places.

What was measured:
[1] = tested on: IL-8 (CXCL8) promoter; settings: LNCaP cells, cited from earlier work
[2] = tested on: IL-8; experiment: qRT-PCR quantification of IL-8 in LNCaP cells; format: cell-based, human; settings: LNCaP cells in androgen-free media, FIG. 1f
Description: Myc-Cap, derived from spontaneous prostate cancer in c-Myc transgenic mice, was a generous gift from Dr. C. Sawyers. To generate MCRedAL, Myc-Cap cells were transfected with pRetroQ-mCherry-C1 (Clontech) using lipofectamine 2000 (Invitrogen) and isolated by FACS sorting based on mCherry expression (Extended Data FIG. 1a). Myc-Cap and MCRedAL cells were cultured in DMEM as previously described. LNCaP, VCaP, E006AA, CWR22Rv1, DU145, and PC3 cell lines were obtained and cultured as recommended by the ATCC. LAPC4 (a gift from Dr. S. Yegnasubramanian) were maintained in RPMI-1640 (Corning) supplemented with 10% fetal bovine serum (FBS; Gemini Bio-Products). Androgen independent LNCaP-abl cells were a gift from Dr. Z. Culig and cultured as described previously^29. LAPC4-CR and VCaP-CR (a gift from S. Yegnasubramanian) were derived by passaging LAPC4 and VCaP cells through castrated animals and further subculturing in RPMI-1640 supplemented with 10% charcoal stripped serum (CSS; Gemini Bio-Products) supplemented with 1×B-27 Neuronal Supplement (Gibco). For experiments when cells were grown in androgen-free conditions, 10% FBS was substituted for 10% CSS in complete media. For migration/chemotaxis assays, prostate cancer cell lines were cultured in complete media containing either 0.5% or 2.5% FBS for human and murine cells, respectively. […]

[3] = tested on: Cxcl15; experiment: Cxcl15 expression in benign prostate epithelium of mice (RISH, qRT-PCR); format: in vivo, mouse; settings: WT mice treated with ADT followed by testosterone repletion, FIG. 2g
Excerpt: Eight-week-old male HOXB13-GFP mice carrying the Hoxb13-rtTA transgene and a Tetracycline operator—Histone 2B-Green Fluorescent Protein (TetO-H2BGFP), which results on GFP expression being restricted to luminal epithelial Hoxb13^+ cells (described previously), were castrated via bilateral orchiectomy. A cycle of prostate regression/regeneration was induced as described previously. Briefly, mice were allowed to regress for six weeks to reach the fully involuted state. Mice were randomized to ADT or ADT+testosterone (T) treatment groups. Testosterone was administered for four weeks for prostate regeneration by subcutaneous pellets; this regimen yields physiological levels of serum testosterone. All mice received 2 mg/ml of Doxycycline (Sigma) in the drinking water to induce GFP expression under the control of the luminal epithelial promoter, HoxB13, one week prior euthanizing them for their analysis.
Manual fluorescent RNAScope was performed on formalin-fixed and zinc-fixed paraffin embedded sections using company protocols. Briefly, sections were cut at 5 μm, air dried overnight, baked at 60° C. for 1 hrs, dewaxed and air-dried before pre-treatments. RNAScope Cxcl15, 3-plex positive control probes (Polr2a, Ppib, Ubc) and 3-plex negative control probes (DapB of Bacillus subtilis strain) from Advanced Cell Diagnostics (ACD) were used in this study. […]

[4] = tested on: IL-8; settings: men undergoing ADT with testosterone supplementation vs ADT, FIG. 2h; cited from earlier work
[5] = tested on: IL-8; settings: high-risk PCa patients treated with ADT (degarelix 240 mg SQ) vs untreated controls, FIG. 2i
Description: Formalin fixed, paraffin embedded (FFPE) human prostate cancer samples were obtained from consented patients treated with ADT (degarelix; 240 mg SQ) in a neo-adjuvant trial (NCT01696877) and matched control radical prostatectomies were obtained from patients treated at the Johns Hopkins Sidney Kimmel Comprehensive Cancer Center (Baltimore, Md.) under IRB-approved clinical protocol J1265. All patients provided written, informed consent. Total RNA was extracted using Trizol (Ambion). cDNA was prepared from total RNA preps using the RNA to cDNA EcoDry Premix (Clontech). Real-time assays were conducted using TaqMan real-time probes (Applied Biosystems). AA CT method was used for relative gene expression. Expression of the target gene was normalized to the reference gene (18S) and the mean expression level of the control group. LCM samples were normalized to 18S, TBP, and GAPDH reference genes. […] Sections were deparaffinized, hydrated and stained with hematoxylin prior to microdissection. Individual cancer cells and cancer cell clusters were microdissected by a trained pathologist using a LMD 7000 laser capture microscope (Leica). RNA was recovered from the microdisseceted material using the RNeasy FFPE kit (Qiagen). Quantitative RT-PCR was performed as described above. For the analysis, a Mann-Whitney U test was performed.

[6] = tested on: Myc-Cap tumors; experiment: Immune infiltration (PMN-MDSC, TIL, TAM) of Myc-Cap tumors by flow cytometry; format: in vivo, mouse; settings: Myc-Cap allografts after ADT, FIG. 3b
Description: Eight-week-old male FVB/NJ and J:NU mice were subcutaneously inoculated in the right flank with either Myc-Cap or MCRedAL (1×10^6 cells/mouse), and LNCaP or PC3 (3×10^6 cells/mouse), respectively. Tumor diameters were measured with electronic calipers every 3 days as indicated and the tumor volume was calculated using the formula: [longest diameter×(shortest diameter)^2]/2. Myc-Cap tumor bearing mice received androgen-deprivation therapy (ADT) 4 weeks after tumor implantation when tumor volume reached ˜500 mm^3, as indicated in figure legends. […] Onset of castration-resistance was defined as the time to tumor size increased by 30% (˜650 mm^3) after ADT. Chemical castration by ADT was compared to bilateral orchiectomy as described in FIG. 1a. […]
Single-cell suspensions from prostate tumor and tissues were prepared using the Mouse Tumor Dissociation Kit according to the manufacturer's recommendations (Miltenyi). […] Gates of cytokines were determined by fluorescence minus one (FMO) controls. Staining was visualized by fluorescenceactivated cell sorting (FACS) analysis using a BD FACSCelesta™ (BD Biosciences) and analyzed using FlowJo® (Flowjo LLC). […]

[7] = tested on: Cxcl15; experiment: Expression analysis of sorted MCRedAL tumor cells pre- and post-ADT; format: in vivo, mouse
Description: Eight-week-old male FVB/NJ and J:NU mice were subcutaneously inoculated in the right flank with either Myc-Cap or MCRedAL (1×10^6 cells/mouse), and LNCaP or PC3 (3×10^6 cells/mouse), respectively. Tumor diameters were measured with electronic calipers every 3 days as indicated and the tumor volume was calculated using the formula: [longest diameter×(shortest diameter)^2]/2. Myc-Cap tumor bearing mice received androgen-deprivation therapy (ADT) 4 weeks after tumor implantation when tumor volume reached ˜500 mm^3, as indicated in figure legends. […]
Tumors collected at different treatment time points were minced, lysed in CelLytic MT (Sigma) containing halt protease and phosphatase inhibitor (Thermo Fisher) in a 1:100 ratio, and incubated on ice for 30 minutes with intermittent vortexing. […] IL-8 and Cxcl15 were analyzed by ELISA kits following the manufacturer's instructions (BD Bioscience and R&D Systems, respectively).
MCRedAL tumor were harvested when their tumor volume reached ˜500 mm^3 (CS group), and 7 days after chemical castration (ADT). […] Resulting CEL files were analyzed in Affymetrix Expression Console (v. 1.4) using the SST-RMA method, and all samples passed the quality control. Log2 probe intensities were extracted from CEL (signal intensity) files and normalized using RMA quantile normalization, then further analyzed using Partek Genomics Suite v6.6. […]

[8] = tested on: IL-8 (CXCL8) promoter; settings: LNCaP cells, DHT 100 nM
Description: Chromatin immunoprecipitation was performed. In brief, LNCaP cells were washed with serum-free media and then grown in media containing 10% charcoal stripped FBS for 48 hours. Cells were treated with 100 nM DHT or vehicle for 8 hours. DNA was cross-linked with 1% formaldehyde in PBS for 10 minutes and crosslinking was quenched by addition of 0.125 M glycine. Fixed cells were then lysed in lysis buffer (1% SDS, 5 mM EDTA, 50 mM Tris HCl, pH8.1) and sonicated to a fragment size of 200-600 bp using a Covaris water bath sonicator (Woburn, Mass.). Sheared chromatin was then incubated with primary antibodies (AR [06-680, Millipore], H3K4me3 [ab8580, Abcam], phospho-SerS RNA polymerase 2 [ab5131, Abcam], RNA polymerase 2 [4H8, Cell Signaling Technologies] or control IgG [Cell Signaling Technologies]) overnight at 4° C. Complexes were immobilized on Dynabeads (Thermo Fisher) by incubating for 4 hours at 4° C. Beads were sequentially washed with TSEI (0.1% SDS, 1% Triton X-100, 2 mM EDTA, 20 mM Tris HCl, pH 8.1, 150 mM NaCl), TSEII (0.1% SDS, 1% Triton X-100, 2 mM EDTA, 20 mM Tris HCl, pH 8.1, 500 mM NaCl) and TSEIII (0.25 M LiCl, 1% NP-40, 1% deoxycholate, 1 mM EDTA, 10 mM Tris HCl, pH 8.1). […] Enriched DNA libraries were analyzed using primers specific to IL-8 locus: Forward: 5′ [sequence] […] 3′ (SEQ ID NO: 2) using quantitative (q) RT-PCR. […]

[9] = tested on: PSA (KLK3) promoter; settings: LNCaP cells, DHT 100 nM, FIG. 1h right
Description: Chromatin immunoprecipitation was performed. In brief, LNCaP cells were washed with serum-free media and then grown in media containing 10% charcoal stripped FBS for 48 hours. Cells were treated with 100 nM DHT or vehicle for 8 hours. […] Fixed cells were then lysed in lysis buffer (1% SDS, 5 mM EDTA, 50 mM Tris HCl, pH8.1) and sonicated to a fragment size of 200-600 bp using a Covaris water bath sonicator (Woburn, Mass.). Sheared chromatin was then incubated with primary antibodies (AR [06-680, Millipore], H3K4me3 [ab8580, Abcam], phospho-SerS RNA polymerase 2 [ab5131, Abcam], RNA polymerase 2 [4H8, Cell Signaling Technologies] or control IgG [Cell Signaling Technologies]) overnight at 4° C. Complexes were immobilized on Dynabeads (Thermo Fisher) by incubating for 4 hours at 4° C. Beads were sequentially washed with TSEI (0.1% SDS, 1% Triton X-100, 2 mM EDTA, 20 mM Tris HCl, pH 8.1, 150 mM NaCl), TSEII (0.1% SDS, 1% Triton X-100, 2 mM EDTA, 20 mM Tris HCl, pH 8.1, 500 mM NaCl) and TSEIII (0.25 M LiCl, 1% NP-40, 1% deoxycholate, 1 mM EDTA, 10 mM Tris HCl, pH 8.1). DNA was eluted with IP Elution buffer (1% SDS, 0.1M NaHCO3, proteinase K) and incubated at 56° C. for 15 minutes. […] Data is shown as relative enrichment normalized to input DNA.

TNFα
p65 binding at the IL-8 (CXCL8) promoter (ChIP-Seq, GSE83860) ([1]; TNFα 1000 U/ml, FIG. 1g bottom): significantly increased p65 binding
IL-8 expression (qRT-PCR) [2]: upregulated IL-8 expression in a dose-dependent manner

C[C@]12CC[C@H]3[C@@H](CCC4=CC(=O)CC[C@@]43C)[C@@H]1CC[C@@H]2O [testosterone]
epithelial Cxcl15 expression [3]: expression significantly decreased by testosterone repletion
IL-8 mRNA expression [4]: significantly reduced IL-8 mRNA expression

degarelix acetate [ADT]
IL-8 expression (qRT-PCR) [5]: increased IL-8 expression
T cell influx into tumor [6]: promoted a transient T cell influx
tumor associated macrophage (TAM) populations [6]: without significant changes in tumor associated macrophage (TAM) populations
Cxcl15 transcript (microarray) ([7]; MCRedAL tumor cells, 7 days after chemical castration vs castration-sensitive, FIG. 1d): significantly up-regulated post-ADT
Cxcl15 (qRT-PCR and ELISA) ([7]; post-ADT, data not shown): confirmed the upregulation of Cxcl15 post-ADT at the protein level

C[C@]12CCC(=O)C[C@@H]1CC[C@@H]1[C@@H]2CC[C@]2(C)[C@@H](O)CC[C@@H]12 [DHT, dihydrotestosterone]
androgen dependent AR binding at the IL-8 promoter (ChIP-qRT-PCR) ([8]; FIG. 1h): verified by ChIP-qRT-PCR
binding of pol II, pSer2 pol II and H3K4me3 to the IL-8 locus ([8]; FIG. 1h left): substantially reduced
AR binding at the IL-8 promoter (in silico ChIP-Seq analysis, GSE83860) ([1]; DHT 100 nM, FIG. 1g top): found AR binding at the IL-8 promoter
IL-8 expression (qRT-PCR) [2]: did not affect IL-8 expression
pSer2 pol II binding to the promoter of PSA (KLK3) [9]: significantly increased
